Measurements published in the NIST ThermoML archive (doi:10.1021/je060271a).

Details: 283.15 K, Liquid, Vibrating tube method

CCCCC(=O)OCC(COC(=O)CCCC)(COC(=O)CCCC)COC(=O)CCCC [pentaerythritol tetrapentanoate]
Details | mass density [kg/m3]
5629.7 kPa | 1030.4
5659.1 kPa | 1030.3
5688.1 kPa | 1030.4
5723.9 kPa | 1030.4
5754.6 kPa | 1030.5
5779.1 kPa | 1030.6
5803 kPa | 1030.5
5832 kPa | 1030.5
5856.1 kPa | 1030.5
5881 kPa | 1030.5
5906.4 kPa | 1030.5
5936.8 kPa | 1030.5
5961.9 kPa | 1030.6
5987.7 kPa | 1030.6
6018.4 kPa | 1030.5
6044.4 kPa | 1030.6
6070.3 kPa | 1030.6
6097.3 kPa | 1030.6
6128.9 kPa | 1030.6
6155.9 kPa | 1030.8
6188.9 kPa | 1030.7
6217.1 kPa | 1030.7
6245.2 kPa | 1030.6
6273.6 kPa | 1030.7
6301.9 kPa | 1030.7
6336.3 kPa | 1030.8
6365.5 kPa | 1030.8
6395.6 kPa | 1030.8
6431.7 kPa | 1030.9
6462.7 kPa | 1030.8
6491.7 kPa | 1030.9
6519.4 kPa | 1030.9
6542.3 kPa | 1030.9
6565.5 kPa | 1031
6593.5 kPa | 1031.1
6616.8 kPa | 1031
6640.3 kPa | 1031
6668.5 kPa | 1031
6692.7 kPa | 1031
6717.5 kPa | 1031.1
6741.9 kPa | 1031
6771.1 kPa | 1031.1
6796.3 kPa | 1031.1
6820.7 kPa | 1031
6850.6 kPa | 1031
6876.8 kPa | 1031.1
6902.9 kPa | 1031.1
6929.7 kPa | 1031.2
6961.3 kPa | 1031.2
6989.3 kPa | 1031.2
7017.1 kPa | 1031.2
7043.5 kPa | 1031.2
7061.5 kPa | 1031.2
7079.3 kPa | 1031.1
7097.4 kPa | 1031.2
7118.7 kPa | 1031.2
7234.2 kPa | 1031.4
7256.3 kPa | 1031.3
7276 kPa | 1031.3
7295 kPa | 1031.3
7315.5 kPa | 1031.4
7334.8 kPa | 1031.4
7354.5 kPa | 1031.4
7377.5 kPa | 1031.5
7396.8 kPa | 1031.4
7420.6 kPa | 1031.4
7440.5 kPa | 1031.5
7460.5 kPa | 1031.4
7480.2 kPa | 1031.4
7504.4 kPa | 1031.5
7525.1 kPa | 1031.4
7592.3 kPa | 1031.6
7634.1 kPa | 1031.5
7655.5 kPa | 1031.6
7680.7 kPa | 1031.4
7702.1 kPa | 1031.7
7723.5 kPa | 1031.5
7745.1 kPa | 1031.6
7771 kPa | 1031.6
7792.7 kPa | 1031.7
7814.7 kPa | 1031.6
7836.8 kPa | 1031.7
7863.9 kPa | 1031.6
7886.1 kPa | 1031.7
7909.2 kPa | 1031.7
8005.6 kPa | 1031.7
8079.8 kPa | 1031.9
8132.6 kPa | 1031.8
8156.2 kPa | 1031.8
8209.7 kPa | 1031.8
8234 kPa | 1031.8
8258.7 kPa | 1031.9
8283.5 kPa | 1031.9
8312.9 kPa | 1031.9
8337.9 kPa | 1031.8
8363.2 kPa | 1031.9
8393.6 kPa | 1032
8418.8 kPa | 1032.2
8444.3 kPa | 1031.9
8474.7 kPa | 1032
8501.2 kPa | 1032.1
8527.8 kPa | 1032
8554.5 kPa | 1032
8586.3 kPa | 1032.1
8612.5 kPa | 1032
8644.9 kPa | 1032.2
8671.8 kPa | 1032.2
8698.7 kPa | 1032.2
8726 kPa | 1032.1
8759.1 kPa | 1032
8787 kPa | 1032.2
8815 kPa | 1032.2
8848.6 kPa | 1032.3
8877 kPa | 1032.2
8906.3 kPa | 1032.3
8934.4 kPa | 1032.3
8969.3 kPa | 1032.3
8998.4 kPa | 1032.4
9027.7 kPa | 1032.3
9092.4 kPa | 1032.4
9158.9 kPa | 1032.3
9189.8 kPa | 1032.4
9220.8 kPa | 1032.6
9257.3 kPa | 1032.5
9288.4 kPa | 1032.5
9320.3 kPa | 1032.4
9599.3 kPa | 1032.6
9632.7 kPa | 1032.7
9666.3 kPa | 1032.8
9707.5 kPa | 1032.7
9743 kPa | 1032.7
9779.3 kPa | 1032.7
9813.6 kPa | 1032.9
9848.6 kPa | 1032.9
9891.1 kPa | 1032.8
9926.8 kPa | 1032.8
9963 kPa | 1032.8
10006 kPa | 1032.8
10044 kPa | 1032.9
10125 kPa | 1032.9
10200 kPa | 1033.1
10248 kPa | 1033
10286 kPa | 1033
10324 kPa | 1033.1
10363 kPa | 1033
10410 kPa | 1033.1
10449 kPa | 1033.2
10489 kPa | 1033.1
10537 kPa | 1033.2
10577 kPa | 1033.2
10619 kPa | 1033.3
10668 kPa | 1033.3
10710 kPa | 1033.4
10753 kPa | 1033.3
10805 kPa | 1033.3
10848 kPa | 1033.4
10894 kPa | 1033.3
10948 kPa | 1033.3
10990 kPa | 1033.4
11025 kPa | 1033.4
11059 kPa | 1033.4
11099 kPa | 1033.5
11132 kPa | 1033.6
11173 kPa | 1033.5
11207 kPa | 1033.7
11241 kPa | 1033.5
11283 kPa | 1033.7
11318 kPa | 1033.6
11354 kPa | 1033.6
11389 kPa | 1033.7
11432 kPa | 1033.7
11468 kPa | 1033.7
11505 kPa | 1033.8
11549 kPa | 1033.8
11586 kPa | 1033.7
11623 kPa | 1033.9
11661 kPa | 1033.8
11706 kPa | 1034
11743 kPa | 1033.8
11782 kPa | 1033.9
11828 kPa | 1034
11867 kPa | 1033.9
11906 kPa | 1033.9
11992 kPa | 1034.1
12032 kPa | 1034
12080 kPa | 1034.1
12120 kPa | 1034.1
12161 kPa | 1034.1
12211 kPa | 1034.3
12253 kPa | 1034.1
12295 kPa | 1034
12348 kPa | 1034.2
12392 kPa | 1034.2
12436 kPa | 1034.2
12474 kPa | 1034.3
12515 kPa | 1034.4
12549 kPa | 1034.3
12589 kPa | 1034.4
12624 kPa | 1034.4
12659 kPa | 1034.5
12695 kPa | 1034.5
12739 kPa | 1034.4
12775 kPa | 1034.3
12815 kPa | 1034.6
12841 kPa | 1034.5
12867 kPa | 1034.5
12897 kPa | 1034.5
12922 kPa | 1034.5
12949 kPa | 1034.5
12974 kPa | 1034.6
13005 kPa | 1034.5
13031 kPa | 1034.6
13058 kPa | 1034.5
13089 kPa | 1034.5
13115 kPa | 1034.7
13142 kPa | 1034.6
13174 kPa | 1034.6
13203 kPa | 1034.7
13230 kPa | 1034.9
13257 kPa | 1034.7
13285 kPa | 1034.8
13317 kPa | 1034.8
13344 kPa | 1034.8
13377 kPa | 1034.8
13404 kPa | 1034.8
13432 kPa | 1034.8
13460 kPa | 1034.9
13493 kPa | 1034.9
13521 kPa | 1034.9
13551 kPa | 1034.9
13580 kPa | 1035
13615 kPa | 1034.9
13643 kPa | 1034.9
13672 kPa | 1035.1
13701 kPa | 1035
13736 kPa | 1035
13764 kPa | 1035.1
13794 kPa | 1035
13829 kPa | 1035.1
13858 kPa | 1035.1
13893 kPa | 1035.1
13923 kPa | 1035.1
13954 kPa | 1035.2
13984 kPa | 1035.2
14021 kPa | 1035.1
14051 kPa | 1035.3
14082 kPa | 1035.2
14118 kPa | 1035.2
14148 kPa | 1035.3
14186 kPa | 1035.3
14216 kPa | 1035.4
14248 kPa | 1035.3
14279 kPa | 1035.4
14317 kPa | 1035.3
14348 kPa | 1035.4
14380 kPa | 1035.4
14419 kPa | 1035.5
14451 kPa | 1035.4
14490 kPa | 1035.4
14522 kPa | 1035.5
14555 kPa | 1035.4
14588 kPa | 1035.5
14628 kPa | 1035.4
14660 kPa | 1035.5
14694 kPa | 1035.6
14735 kPa | 1035.6
14768 kPa | 1035.7
14808 kPa | 1035.6
14842 kPa | 1035.6
14877 kPa | 1035.7
14912 kPa | 1035.6
14954 kPa | 1035.8
14989 kPa | 1035.5
15024 kPa | 1035.7
15066 kPa | 1035.6
15101 kPa | 1035.7
15137 kPa | 1035.8
15180 kPa | 1035.8
15216 kPa | 1035.8
15252 kPa | 1035.9
15295 kPa | 1036
15333 kPa | 1035.8
15369 kPa | 1036
15414 kPa | 1036.1
15451 kPa | 1036
15488 kPa | 1036
15525 kPa | 1036
15571 kPa | 1036
15609 kPa | 1036.1
15648 kPa | 1036
15694 kPa | 1036.2
15732 kPa | 1036.1
15772 kPa | 1036.1
15819 kPa | 1036.1
15859 kPa | 1036.1
15899 kPa | 1036.2
15938 kPa | 1036.2
15986 kPa | 1036.2
16026 kPa | 1036.4
16067 kPa | 1036.3
16116 kPa | 1036.3
16157 kPa | 1036.3
16199 kPa | 1036.4
16241 kPa | 1036.4
16291 kPa | 1036.5
16333 kPa | 1036.4
16376 kPa | 1036.5
16421 kPa | 1036.5
16472 kPa | 1036.6
16515 kPa | 1036.6
16559 kPa | 1036.5
16611 kPa | 1036.4
16655 kPa | 1036.6
16699 kPa | 1036.7
16753 kPa | 1036.8
16798 kPa | 1036.7
16844 kPa | 1036.7
16900 kPa | 1036.7
16949 kPa | 1036.8
17000 kPa | 1036.7
17050 kPa | 1036.9
